Test results reported in BindingDB's records for patent US20250115598 (Anaxis Pharma, 2025).
Values belong to the molecule of their own block, whether it stands above or below them.

Columns and labels:
Assay in all cases: In Vitro Assay
[1] = molecular target: Receptor-interacting serine/threonine-protein kinase 3 (Homo sapiens, UniProt Q9Y572)
Protocol: (§1) Binding affinity of the test compounds for human MLKL (full length), mouse MLKL (full length), human RIPK1 and human RIPK3 was determined using the KINOMEscan™ technology developed by DiscoverX (USA; http://www.discoverx.com). The assay was conducted according to manufacturer instructions.

[2] = molecular target: T1, Receptor-interacting serine/threonine-protein kinase 1 (Homo sapiens, UniProt Q13546)
T1 sequence (Q13546 whole entry): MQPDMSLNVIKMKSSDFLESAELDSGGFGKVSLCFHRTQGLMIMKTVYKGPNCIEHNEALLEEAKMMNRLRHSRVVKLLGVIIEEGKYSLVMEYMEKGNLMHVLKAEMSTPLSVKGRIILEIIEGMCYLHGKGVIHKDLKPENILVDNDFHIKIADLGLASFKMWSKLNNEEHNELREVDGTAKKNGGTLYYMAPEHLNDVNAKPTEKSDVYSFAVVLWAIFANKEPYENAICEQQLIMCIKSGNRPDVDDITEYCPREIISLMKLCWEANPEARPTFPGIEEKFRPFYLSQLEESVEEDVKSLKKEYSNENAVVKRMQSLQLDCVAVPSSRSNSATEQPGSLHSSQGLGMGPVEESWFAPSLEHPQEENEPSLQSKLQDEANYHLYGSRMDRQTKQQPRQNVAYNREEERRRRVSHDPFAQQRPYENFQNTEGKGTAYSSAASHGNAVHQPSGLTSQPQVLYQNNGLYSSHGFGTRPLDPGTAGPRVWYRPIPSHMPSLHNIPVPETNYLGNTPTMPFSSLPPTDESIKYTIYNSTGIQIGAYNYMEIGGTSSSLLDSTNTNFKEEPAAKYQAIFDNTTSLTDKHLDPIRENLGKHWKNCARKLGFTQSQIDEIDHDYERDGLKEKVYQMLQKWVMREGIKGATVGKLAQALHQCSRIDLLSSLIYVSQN
Protocol: as §1

[3] = molecular target: T2, Mixed lineage kinase domain-like protein (Homo sapiens, UniProt Q8NB16)
T2 sequence (Q8NB16 whole entry): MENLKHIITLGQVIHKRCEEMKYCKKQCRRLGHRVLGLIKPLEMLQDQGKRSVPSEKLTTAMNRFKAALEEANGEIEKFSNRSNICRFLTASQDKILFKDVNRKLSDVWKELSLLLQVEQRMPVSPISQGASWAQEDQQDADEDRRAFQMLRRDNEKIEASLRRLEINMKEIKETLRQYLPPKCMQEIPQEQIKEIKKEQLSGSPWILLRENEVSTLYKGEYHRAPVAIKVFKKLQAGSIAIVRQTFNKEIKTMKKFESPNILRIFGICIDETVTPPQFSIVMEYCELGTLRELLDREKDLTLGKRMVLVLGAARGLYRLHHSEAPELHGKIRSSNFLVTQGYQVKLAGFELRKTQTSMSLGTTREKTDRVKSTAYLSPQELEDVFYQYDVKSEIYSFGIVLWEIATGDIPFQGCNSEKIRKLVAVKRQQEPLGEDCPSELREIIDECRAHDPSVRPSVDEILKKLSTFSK
Protocol: as §1

Chain of Receptor-interacting serine/threonine-protein kinase 3 (Q9Y572 whole entry): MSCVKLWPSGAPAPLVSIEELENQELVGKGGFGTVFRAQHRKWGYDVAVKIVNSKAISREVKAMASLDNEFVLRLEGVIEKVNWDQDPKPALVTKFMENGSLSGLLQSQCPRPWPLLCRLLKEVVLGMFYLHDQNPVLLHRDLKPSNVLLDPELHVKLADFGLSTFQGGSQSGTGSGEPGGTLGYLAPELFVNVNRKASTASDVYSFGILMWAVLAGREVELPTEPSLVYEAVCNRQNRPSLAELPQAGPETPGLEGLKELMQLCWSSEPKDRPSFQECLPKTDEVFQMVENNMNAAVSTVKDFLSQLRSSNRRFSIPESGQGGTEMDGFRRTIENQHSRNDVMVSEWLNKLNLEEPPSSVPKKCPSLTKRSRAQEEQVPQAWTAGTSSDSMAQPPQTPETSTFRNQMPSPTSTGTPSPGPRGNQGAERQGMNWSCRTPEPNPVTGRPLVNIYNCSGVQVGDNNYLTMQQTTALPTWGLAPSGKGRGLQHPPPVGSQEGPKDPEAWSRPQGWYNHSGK

Structure (SMILES): Nc1ncc(-c2cnn(C3CCOCC3)c2)c2occ(-c3ccc(NS(=O)(=O)C(F)F)c(OCc4ccc(F)cc4)c3)c12 [US20250115598, Compound 5]
Kd [1]: > 2500 nM
Kd [2]: > 2500 nM

Structure (SMILES): Cn1nc(-c2ccc(NS(=O)(=O)C(F)F)c(OCc3ccc(F)cc3)c2)c2c(N)ncc(-c3ccncc3)c21 [US20250115598, Compound 14]
Kd [1]: > 2500 nM
Kd [2]: > 2500 nM

Structure (SMILES): C[C@H](Oc1cc(-c2nn(C)c3c(C4=CCCN(C)C4)cnc(N)c23)ccc1NS(=O)(=O)C(F)F)c1ccc(F)cc1 [US20250115598, Compound 55]
Kd [1]: > 2500 nM
Kd [2]: > 2500 nM

Structure (SMILES): C[C@H](Oc1cc(-c2nn(C)c3c(-c4cnn(CCC(F)(F)F)c4)cnc(N)c23)ccc1NS(=O)(=O)C(F)F)c1ccc(F)cc1 [US20250115598, Compound 113]
Kd [3]: < 50 nM

The remaining lines, values ahead:

Kd [1]: > 2500 nM
Kd [2]: > 2500 nM
Structure (SMILES): COc1ccc([C@H](C)Oc2cc(-c3nn(C)c4c(-c5cnn(C6CCOCC6)c5)cnc(N)c34)ccc2NS(=O)(=O)C(F)F)cc1 [US20250115598, Compound 129]

Kd [1]: > 2500 nM
Kd [2]: > 2500 nM
Structure (SMILES): C[C@H](Oc1cc(-c2nn(C)c3c(-c4cnn(C5CCOCC5)c4)cnc(N)c23)ccc1NS(=O)(=O)C(F)F)c1ccc(F)cc1 [US20250115598, Compound 135]

Kd [1]: > 2500 nM
Kd [2]: > 2500 nM
Structure (SMILES): C[C@H](Oc1cc(-c2nn(C)c3c(-c4cnn(C5CCN(C)C(C(F)F)C5)c4)cnc(N)c23)ccc1NS(=O)(=O)C(F)F)c1ccc(F)cc1 (stereo partly drawn) [US20250115598, Compound 158]
